Reference: PubChem BioAssay (NCI)
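Each compound was tested at five concentrations against cells in 96-well plates for 48 hours. Here, GI50 denotes the concentration required for 50% inhibition of growth. Definition used: TGI = concentration required for complete inhibition of growth.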

What was measured:
Assay in all cases: inhibition of tumour cell growth, NCI panel, 48 h
M14 melanoma = system: M14 melanoma
LOX IMVI melanoma = system: LOX IMVI melanoma
OVCAR-5 ovarian = system: OVCAR-5 ovarian
CAKI-1 renal = system: CAKI-1 renal
NCI/ADR-RES ovarian = system: NCI/ADR-RES ovarian
SNB-19 CNS = system: SNB-19 CNS
A549 NSCLC = system: A549 NSCLC
786-0 renal = system: 786-0 renal
PC-3 prostate = system: PC-3 prostate
TK-10 renal = system: TK-10 renal
SF-539 CNS = system: SF-539 CNS
CCRF-CEM leukemia = system: CCRF-CEM leukemia
SK-MEL-5 melanoma = system: SK-MEL-5 melanoma
A498 renal = system: A498 renal
SK-MEL-28 melanoma = system: SK-MEL-28 melanoma
HS 578T breast = system: HS 578T breast
SW-620 colon = system: SW-620 colon
K-562 leukemia = system: K-562 leukemia
IGROV1 ovarian = system: IGROV1 ovarian
UACC-257 melanoma = system: UACC-257 melanoma
KM12 colon = system: KM12 colon
OVCAR-3 ovarian = system: OVCAR-3 ovarian
MALME-3M melanoma = system: MALME-3M melanoma
MDA-MB-435 = system: MDA-MB-435
RXF 393 renal = system: RXF 393 renal
RPMI-8226 leukemia = system: RPMI-8226 leukemia
OVCAR-4 ovarian = system: OVCAR-4 ovarian
MCF7 breast = system: MCF7 breast
SN12C renal = system: SN12C renal
SK-MEL-2 melanoma = system: SK-MEL-2 melanoma
COLO 205 colon = system: COLO 205 colon
NCI-H23 lung = system: NCI-H23 lung
OVCAR-8 ovarian = system: OVCAR-8 ovarian
MDA-MB-231 breast = system: MDA-MB-231 breast
NCI-H226 lung = system: NCI-H226 lung
BT-549 breast = system: BT-549 breast
ACHN renal = system: ACHN renal
NCI-H460 lung = system: NCI-H460 lung
T-47D breast = system: T-47D breast
HT29 colon = system: HT29 colon
SK-OV-3 ovarian = system: SK-OV-3 ovarian
U251 CNS = system: U251 CNS
HOP-92 NSCLC = system: HOP-92 NSCLC
DU-145 prostate = system: DU-145 prostate
UO-31 renal = system: UO-31 renal
HL-60(TB) leukemia = system: HL-60(TB) leukemia
UACC-62 melanoma = system: UACC-62 melanoma
SR leukemia = system: SR leukemia
HCT-116 colon = system: HCT-116 colon
MOLT-4 leukemia = system: MOLT-4 leukemia
NCI-H522 lung = system: NCI-H522 lung
SF-268 CNS = system: SF-268 CNS
HCC-2998 colon = system: HCC-2998 colon
HOP-62 NSCLC = system: HOP-62 NSCLC

Cc1ccc(S(=O)c2ccc([N+](=O)[O-])c3nonc23)cc1 (stereo not drawn)
GI50 (M14 melanoma): 11 µM
TGI (M14 melanoma): 23.7 µM
GI50 (LOX IMVI melanoma): 5.88 µM
TGI (LOX IMVI melanoma): 19.2 µM
GI50 (OVCAR-5 ovarian): 9.5 µM
TGI (OVCAR-5 ovarian): 26.2 µM
GI50 (CAKI-1 renal): 3.12 µM
TGI (CAKI-1 renal): 11.3 µM
GI50 (NCI/ADR-RES ovarian): 15.8 µM
TGI (NCI/ADR-RES ovarian): 48.9 µM
GI50 (SNB-19 CNS): 14.7 µM
TGI (SNB-19 CNS): 33.9 µM
GI50 (A549 NSCLC): 18.7 µM
TGI (A549 NSCLC): 39.5 µM
GI50 (786-0 renal): 13.2 µM
TGI (786-0 renal): 26.2 µM
GI50 (PC-3 prostate): 12.8 µM
TGI (PC-3 prostate): 27.1 µM
GI50 (TK-10 renal): 2.53 µM
TGI (TK-10 renal): 5.51 µM
GI50 (SF-539 CNS): 19 µM
TGI (SF-539 CNS): 39.3 µM
GI50 (CCRF-CEM leukemia): 2.3 µM
TGI (CCRF-CEM leukemia): 6.27 µM
GI50 (SK-MEL-5 melanoma): 14.8 µM
TGI (SK-MEL-5 melanoma): 28.5 µM
GI50 (A498 renal): 11.8 µM
TGI (A498 renal): 26.4 µM
GI50 (SK-MEL-28 melanoma): 9.15 µM
TGI (SK-MEL-28 melanoma): 23.3 µM
GI50 (HS 578T breast): 21.1 µM
TGI (HS 578T breast): 60.2 µM
GI50 (SW-620 colon): 2.18 µM
TGI (SW-620 colon): 5 µM
GI50 (K-562 leukemia): 3.02 µM
TGI (K-562 leukemia): 9.18 µM
GI50 (IGROV1 ovarian): 12.2 µM
TGI (IGROV1 ovarian): 27.4 µM
GI50 (UACC-257 melanoma): 11.6 µM
TGI (UACC-257 melanoma): 23.9 µM
GI50 (KM12 colon): 15.8 µM
TGI (KM12 colon): 31.1 µM
GI50 (OVCAR-3 ovarian): 2.23 µM
TGI (OVCAR-3 ovarian): 4.78 µM
GI50 (MALME-3M melanoma): 2.23 µM
TGI (MALME-3M melanoma): 5.12 µM
GI50 (MDA-MB-435): 10.2 µM
TGI (MDA-MB-435): 26 µM
GI50 (RXF 393 renal): 2.33 µM
TGI (RXF 393 renal): 5.53 µM
GI50 (RPMI-8226 leukemia): 3.62 µM
TGI (RPMI-8226 leukemia): 25.5 µM
GI50 (OVCAR-4 ovarian): 3.08 µM
TGI (OVCAR-4 ovarian): 9.24 µM
GI50 (MCF7 breast): 5.53 µM
TGI (MCF7 breast): 21.9 µM
GI50 (SN12C renal): 15 µM
TGI (SN12C renal): 31.3 µM
GI50 (SK-MEL-2 melanoma): 17.8 µM
TGI (SK-MEL-2 melanoma): 35.8 µM
GI50 (COLO 205 colon): 1.9 µM
TGI (COLO 205 colon): 3.43 µM
GI50 (NCI-H23 lung): 14.1 µM
TGI (NCI-H23 lung): 30.4 µM
GI50 (OVCAR-8 ovarian): 6.89 µM
TGI (OVCAR-8 ovarian): 22.4 µM
GI50 (MDA-MB-231 breast): 10.1 µM
TGI (MDA-MB-231 breast): 22.6 µM
GI50 (NCI-H226 lung): 15.7 µM
TGI (NCI-H226 lung): 43.2 µM
GI50 (BT-549 breast): 10.1 µM
TGI (BT-549 breast): 21.7 µM
GI50 (ACHN renal): 1.92 µM
TGI (ACHN renal): 3.75 µM
GI50 (NCI-H460 lung): 17.7 µM
TGI (NCI-H460 lung): 38.6 µM
GI50 (T-47D breast): 2.04 µM
TGI (T-47D breast): 4.59 µM
GI50 (HT29 colon): 4.08 µM
TGI (HT29 colon): 22 µM
GI50 (SK-OV-3 ovarian): 18.8 µM
TGI (SK-OV-3 ovarian): 34.3 µM
GI50 (U251 CNS): 16 µM
TGI (U251 CNS): 35 µM
GI50 (HOP-92 NSCLC): 4.09 µM
TGI (HOP-92 NSCLC): 17.2 µM
GI50 (DU-145 prostate): 7.87 µM
TGI (DU-145 prostate): 20.9 µM
GI50 (UO-31 renal): 2.4 µM
TGI (UO-31 renal): 9.54 µM
GI50 (HL-60(TB) leukemia): 3.09 µM
TGI (HL-60(TB) leukemia): 8.93 µM
GI50 (UACC-62 melanoma): 7.25 µM
TGI (UACC-62 melanoma): 20.2 µM
GI50 (SR leukemia): 3.39 µM
TGI (SR leukemia): > 100 µM
GI50 (HCT-116 colon): 1.82 µM
TGI (HCT-116 colon): 3.39 µM
GI50 (MOLT-4 leukemia): 2.64 µM
TGI (MOLT-4 leukemia): 6.96 µM
GI50 (NCI-H522 lung): 1.57 µM
TGI (NCI-H522 lung): 2.98 µM
GI50 (SF-268 CNS): 15 µM
TGI (SF-268 CNS): 29.9 µM
GI50 (HCC-2998 colon): 15.6 µM
TGI (HCC-2998 colon): 29.4 µM
GI50 (HOP-62 NSCLC): 16.2 µM
TGI (HOP-62 NSCLC): 30.8 µM
